Measurements published in paper PMC7985297 (Communications Biology, 2021).
Values joined by “and” are separate entries in the source; they are usually repeats but may differ in a detail not shown here. Equal values may be shown once. “Also recorded” adds a separate entry of the source.

Assays:
DU145 cells = assay: BrdU incorporation assay, DU145; assay type: cell-based, human; conditions: ATRA 10 µM
Protocol: (§1) Cells were treated with the inhibitors and stimulated with 1 nM of R1881 (+) or vehicle (−) for 24 to 72 h. Each data point represents the average from an independent experiment where the error bars show the mean ± s.e.m.
(§2) BrdU incorporation was determined with the colorimetric BrdU ELISA kit (Roche Diagnostics), according to the manufacturer’s protocol. In brief, cells were seeded in 96-well plates (LNCaP, 5000/well; LN95, 8000/well; PC-3 and DU145, 4000/wells) in media with reduced serum (0.5–1%). On the following day, cells were pre-treated with test compounds for 1 h and then incubated with 0.1 nM of R1881. After the indicated incubation times, cells were labeled with 10 μM of BrdU for 2 h and then fixed for the assay.

PC-3 cells = assay: BrdU incorporation assay, PC-3; assay type: cell-based, human; conditions: ATRA 10 µM; for BrdU incorporation, PC-3 (Fig. 4c): − R1881, ENZ 10 µM, EPI-002 25 µM, JUG 20 µM
Protocol: as §1, §2

LN95-D3 cells = assay: Cell cycle analysis by flow cytometry, LN95-D3 subline; assay type: cell-based, human; conditions: LN95-D3, absence of androgen, 48 h
[1] = target: T1, recombinant human Pin1 protein (Homo sapiens, UniProt Q13526); assay: Pin1 inhibition assay (fluorometric isomerase activity); assay type: biochemical; conditions: compounds 0–50 µM, 500 ng Pin1, Supplementary Fig. 2
T1 construct: purchased Abcam ab51230
Protocol: The effect of inhibitors on Pin1 isomerase activity was evaluated using a fluorometric Pin1 Assay Kit (AnaSpec, Fremont, California), according to the manufacturer’s protocol. […] Fluorescence intensity was measured with excitation wavelength at 490 nm and emission wavelength at 520 nm on an Infinite M1000 plate reader (Tecan, Männedorf, Switzerland) at 37 °C. Measurements were recorded every 5 min for up to 1 h.
Fluorescent polarization-based assay
the isomerase activity of Pin1. Each reaction contains 500 ng of
recombinant human Pin1 protein incubated with an inhibitor and a
fluorogenic substrate at 37°C. The uncatalyzed reaction represents
the intrinsic cis/trans isomerization of the substrate without Pin1
separate experiments with the correlation performed in duplicate
wells. RFU, relative fluorescent units.
(1 picture or pasted object on this page, not shown here)

[2] = Body weight and tolerability in the xenograft study; assay type: in vivo, mice; conditions: ATRA 5mg
LN95 cells = assay: Colony formation of LN95 cells; assay type: cell-based, human; conditions: LN95, ATRA 5 or 10 µM, EPI-002 25 µM, treated 24 hours then re-plated
Protocol: page 5: Supplementary Figure 5 a b […] (a) Representative images of colonies from LN95 cells after […] EPI-002. After treating with compounds for 24 hours, the media was removed, and 500 -1,000 cells were re-plated in 6-well plates. Colonies were fixed with 4% paraformaldehyde, stained with a 0.1% crystal violet solution, and then imaged. […]

[3] = tested on: Pin1, Cyclin D1, Skp2 and AR in LN95-D3 tumors; assay: Western blot of harvested LN95-D3 xenograft tumors (Pin1, Cyclin D1, Skp2, AR); assay type: in vivo, mice; conditions: ATRA pellets compared to placebo
Protocol: Scale bars represent 5 mm (f) western blot analysis showing the expression of Pin1, Cyclin D1, Skp2, and AR from representative tumors. Quantification of the data is shown for g Pin1 and h Skp2, where the error bars represent the mean ± s.e.m.
All experiments involving animals conform to the relevant regulatory and ethical standards and were approved by the University of British Columbia Animal Care Committee (A18-0077). Metacam (1 mg/kg, 0.05 mL/10 g of body weight) was administered subcutaneously prior to any surgery. Animals were anesthetized with isoflurane and euthanized by CO2. Six–eight-week-old male (NOD-scid IL2Rgamma^null) mice were maintained in the Animal Care Facility at the British Columbia Cancer Research Centre. Mice were castrated 2 weeks before they were subcutaneously inoculated in the right flank with two million LN95-D3 cells in a 1:1 volume of matrigel (Corning Discovery Labware, Corning, NY). […] Tumors were excised 1 day after the last dose and prepared for western blot analysis and immunohistochemistry.

[4] = tested on: phosphorylated MAPK (p44 and p42) and STAT3 (Tyr705 and Ser727); assay: Western blot of phosphorylated MAPK and STAT3 after IL-6 in LNCaP cells; assay type: cell-based, human; conditions: juglone 20 µM, IL-6 50 ng/mL 15 min
Protocol: Fig. 3 Pin1 interacts with the AR NTD and regulates transactivation. a, b Transactivation assays performed in LNCaP cells expressing a vector encoding the human AR NTD fused to a Gal4 DNA-binding domain (Gal4-ARN). […] Input samples show Pin1 expression from lysates before the pull-down. i Co-immunoprecipitation assay showing AR protein co-immunoprecipitated with STAT3 from LNCaP cells incubated with EPI-002 (EPI, 35 μM), juglone (JUG, 30 μM), or vehicle (VEH, DMSO), and IL-6 (50 ng/mL) for 6 h. j, k Levels of phosphorylated MAPK (isoforms p44 and p42) and phosphorylated STAT3 (Tyr705 and Ser727) from LNCaP cells pre-treated with juglone (20 µM) and then stimulated with IL-6 (50 ng/mL) for 15 min. Error bars show the mean ± s.e.m. *P < 0.05, **P < 0.01, ***P < 0.001; ns not significant.

T1 sequence (Q13526 whole entry): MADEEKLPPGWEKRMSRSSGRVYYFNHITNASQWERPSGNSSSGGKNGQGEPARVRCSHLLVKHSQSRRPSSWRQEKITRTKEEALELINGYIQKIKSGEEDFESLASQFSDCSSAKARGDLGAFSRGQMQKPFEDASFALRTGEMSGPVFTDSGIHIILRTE

With `CC1=C(/C=C/C(C)=C/C=C/C(C)=C/C(=O)O)C(C)(C)CCC1` [ATRA, all-trans retinoic acid] the “effect on proliferation of DU145 cells” value (DU145 cells) was “did not impact the proliferation of either PC-3 or DU145 cells”, the “BrdU incorporation, DU145 (Fig. 4d)” value (DU145 cells; − R1881, ENZ 10 µM, EPI-002 25 µM, JUG 20 µM) was 0.607 and 0.932 and 1.111 and 0.945 and the “effect on proliferation of PC-3 cells” value (PC-3 cells) was “did not impact the proliferation of either PC-3 or DU145 cells”. The “BrdU incorporation, PC-3 (Fig. 4c)” value (PC-3 cells) was 1.204 and 0.885 and 0.987 and 1.277, the “effect on cell cycle distribution” value (LN95-D3 cells) was “reduced the S phase and increased the G1 population” and the “effect on isomerase activity of Pin1” value [1] was “inhibited the isomerase activity of Pin1 in a dose-dependent manner”. For the same molecule, the “Body weight, individual animals (Fig. 7c)” value (“Body weight” below) ([2]; treatment duration 0 days) was 26.7 and 29.9 and 28.1 and 28.2 and 29.3 and 28.3 and 30.2 (2×), the “Body weight” value ([2]; treatment duration 1 days, in g (unit assumed)) was 26.8 and 30.1 and 28.1 and 27.9 and 29.3 and 28.7 and 29 and 29.8 and the “Body weight” value ([2]; treatment duration 2 days) was 26.7 and 29.8 and 27.6 (2×) and 28.9 and 28.8 and 29.1 and 29.4. The “Body weight” value ([2]; treatment duration 3 days) was 25.9 and 29 and 25.6 and 26.8 and 28.1 and 28.3 (2×) and 28.9, the “Body weight” value ([2]; treatment duration 4 days, in g (unit assumed)) was 25.2 and 28.9 and 27 and 27.1 and 29.1 and 28.5 and 27.5 and 28.7 and the “Body weight” value ([2]; treatment duration 5 days, in g (unit assumed)) was 23.9 and 28.3 and 26.5 and 27 and 28.5 and 28.2 and 26.8 and 27.8. The “Body weight” value ([2]; treatment duration 6 days, in g (unit assumed)) was 23.9 and 27.9 and 26.1 and 26.5 and 28.2 and 27.4 and 26.8 and 28, the “Body weight” value ([2]; treatment duration 7 days) was 23.9 and 27.5 (2×) and 25.7 and 26.4 and 28.1 and 26.9 and 27.6 and the “Body weight” value ([2]; treatment duration 8 days, in g (unit assumed)) was 23.1 and 27.9 and 25.6 and 26.6 and 28.2 and 27.4 and 25.9 and 27.6. For the same molecule, the “Body weight” value ([2]; treatment duration 9 days) was 22.3 and 27.6 and 25.3 (2×) and 26.2 and 28.4 and 27.3 and 27.7, the “Body weight” value ([2]; treatment duration 10 days) was 22.1 and 28.3 and 24.9 and 26.3 (2×) and 27.9 and 25.2 and 27.4 and the “Body weight” value ([2]; treatment duration 11 days, in g (unit assumed)) was 22 and 28 and 24.2 and 26 and 27.8 and 25.3 and 24.7 and 27.2. For the same molecule, the “Body weight” value ([2]; treatment duration 12 days, in g (unit assumed)) was 21.9 and 27.9 and 24.6 and 26.1, the “effect on colony formation” value (LN95 cells) was “inhibited the ability of LN95 cells to form colonies in a dose-dependent manner” and the “Pin1 (and cyclin D1) levels in xenografts” value [3] was “decrease in Pin1 levels; also recorded: decreased levels of Pin1 and its target cyclin D1”.
With `O=C1C=CC(=O)c2c(O)cccc21` [juglone] the “BrdU incorporation, PC-3 (Fig. 4c)” value (PC-3 cells; listed as JUG) was 0.17 and 0.16 and 0.171 and 0.227, the “effect on isomerase activity of Pin1” value [1] was “inhibited the isomerase activity of Pin1 in a dose-dependent manner” and the “effect on IL-6-induced phosphorylation of MAPK and STAT3” value [4] was “did not prevent phosphorylation of MAPK (isoforms p44 and p42) or STAT3 (Tyr705 and Ser727)”.
